This is an account of results in patent publication US20200216449A1, “4-Sulfur Substituted Podophyllotoxin Derivative and Preparation Method Therefor and Use Thereof” (priority 2017, published 2020).

The test system of one series is HL-7702. The experiment in a line: MTT test on human normal hepatocytes HL-7702. Format: cell-based. The note with it: human normal hepatocytes HL-7702, MTT, 48 h. On the technique in general: Formazan colour is commonly taken as a measure of viable cells.
In another series the test system is HeLa. The series can be described thus: MTT test for inhibition of tumor cells, HeLa. Format: cell-based. As to conditions: 48 h.
A further series deals with HepG2. The experiment in a line: MTT test for inhibition of tumor cells, HepG2. The note with it: 48 h. Format: cell-based.
The next series deals with MCF7. The experiment in a line: IC50 against breast cancer cell MCF7. Format: cell-based, human. The note with it: vs etoposide.
A further series relates to A549. The experiment in a line: IC50 against human lung cancer cell A549. Format: cell-based. The note with it: for antitumor activity on A549 compared with etoposide: vs etoposide.
For another series, the system named is H8. The experiment in a line: IC50 against human cervical immortalized cells H8. The note with it: for toxicity on normal cell line H8 compared with etoposide: vs etoposide.
The next series has as its system HMEC. The experiment in a line: IC50 against human mammary epithelial cells HMEC. As to conditions: for toxicity on normal cell line HMEC compared with etoposide: vs etoposide.
The subject of the next series is MRC-5. The series can be described thus: IC50 against human embryonic lung cells MRC-5. The note with it: for toxicity on normal cell line MRC-5 compared with etoposide: vs etoposide.

Experimental for HeLa: HepG2, HeLa cell lines and human normal liver cells HL-7702 in a logarithmic growth period were centrifuged at 1000 rpm for 5 min, and the supernatant was discarded, the cells were suspended with a suitable amount of culture medium to adjust the cell concentration to 3.5×10^4/well, the cells were seeded in 96-well plates, and the following experimental groups were set:
100 μl of DMSO was added to each well, followed by shaking on a shaker for 30 min at 37° C., the absorbance (OD) was measured at 492 nm, and the MTT ratio was calculated as the OD value of drug group/OD value of negative control group.

Broadly, the IC50 is the midpoint of a concentration-inhibition curve. As for `COc1cc([C@@H]2c3cc4c(cc3[C@@H](Sc3nc5ncccc5[nH]3)[C@H]3COC(=O)[C@H]23)OCO4)cc(OC)c1O` [Compound 22, 4β-S-(1H-imidazo[4,5-B]pyridin-2)-4′-demethylepipodophyllotoxin], the IC50 with HL-7702 is 33.5 ± 3.25 µM; in the series with HeLa, above 100 µM; in the series with HepG2, 8.31 ± 0.43 µM.

Turning to `COc1cc([C@@H]2c3cc4c(cc3[C@@H](Sc3nc5cc(F)ccc5o3)[C@H]3COC(=O)[C@H]23)OCO4)cc(OC)c1O` [Compound 10, 4β-S-(5-fluorobenzoxazol-2)-4′-demethylepipodophyllotoxin], the “antitumor activity on MCF7 compared with etoposide” value in the series with MCF7 is “significantly improved”. For the same molecule, the concentration for half-maximal inhibition (IC50) with A549 (human lung cancer cell A549) was 2.34 ± 0.16 µM; in the series on HL-7702, 2000 ± 12.8 µM; with H8 (read-out: IC50 H8, normal cell line, human cervical immortalized cells H8), 518.9 ± 1.9 µM; with HeLa, 1.49 ± 0.14 µM; in the series on HMEC (read-out: IC50 HMEC, normal cell line, human mammary epithelial cells HMEC), 323.4 ± 3.21 µM; with MRC-5 (read-out: IC50 MRC-5, normal cell line, human embryonic lung cells MRC-5) it was 348.9 ± 3.1 µM. The same molecule had an IC50 with HepG2 of 1.55 ± 0.29 µM. Further, the “antitumor activity on A549 compared with etoposide” value with A549 is recorded as “significantly improved”. In addition, in the series on H8, the “toxicity on normal cell line H8 compared with etoposide” value is “significantly lower”. Further, the “toxicity on normal cell line HMEC compared with etoposide” value in the series on HMEC was “significantly lower”. The “toxicity on normal cell line MRC-5 compared with etoposide” value in the series on MRC-5 was “significantly lower”.

With `COc1cc([C@@H]2c3cc4c(cc3[C@@H](Sc3ccc(F)cc3)[C@H]3COC(=O)[C@H]23)OCO4)cc(OC)c1O` [Compound 6, 4β-S-(4-fluorobenzene-1)-4′-demethylepipodophyllotoxin], the IC50 in the series with HL-7702 worked out at 51 ± 0.88 µM; in the series with HeLa it was 55.28 ± 0.21 µM; in the series with HepG2, 4.24 ± 0.97 µM.

Turning to `COc1cc(C2c3cc4c(cc3C(Sc3nc5cc(F)ccc5o3)C3COC(=O)C23)OCO4)cc(OC)c1OC` (stereo not drawn) [Compound 9, 4β-S-(5-Fluorobenzoxazol-2)-podophyllotoxin], the IC50 in the series with HL-7702 is above 1000 µM.

Take `COc1cc([C@@H]2c3cc4c(cc3[C@@H](Sc3nc5cc(F)ccc5s3)[C@H]3COC(=O)[C@H]23)OCO4)cc(OC)c1O` [Compound 8, 4β-S-(5-fluorobenzothiazol-2)-4′-demethylepipodophyllotoxin]: the “antitumor activity on MCF7 compared with etoposide” value in the series with MCF7 was “significantly improved”. In addition, in the series on A549, the “antitumor activity on A549 compared with etoposide” value is given as “significantly improved”. Moreover, the IC50 with HL-7702 turned out to be 966.2 ± 7.31 µM; in the series on HeLa, 2.3 ± 0.12 µM; in the series with HepG2, 1.49 ± 0.12 µM. For the same molecule, the “toxicity on normal cell line H8 compared with etoposide” value with H8 was “significantly lower”. For the same molecule, the “toxicity on normal cell line HMEC compared with etoposide” value in the series with HMEC was “significantly lower”. In the series with MRC-5, the “toxicity on normal cell line MRC-5 compared with etoposide” value was “significantly lower”.

On to “4β-S-(5-phenylbenzoxazol-2)-4′-demethylepipodophyllotoxin [Compound 12]”, for which the half-maximal inhibitory concentration (IC50) with HL-7702 is 56.8 ± 1.32 µM; with HeLa it was above 100 µM; in the series with HepG2, 10.2 ± 0.46 µM.

In the case of “4β-S-(6-chlorobenzoxazol-2)-4′-demethylepipodophyllotoxin [Compound 16]”, the IC50 with HL-7702 was determined as 68.3 ± 4.5 µM; in the series on HeLa, 32.3 ± 1.87 µM; in the series with HepG2, 22.3 ± 1.46 µM.

As to `COc1cc(C2c3cc4c(cc3C(O)C3COC(=O)C23)OCO4)cc(OC)c1O` (centres unmarked) [4′-Demethylepipodophyllotoxin, 4′-demethylepipodophyllotoxin, reference compound], the results for the IC50 in the series with HL-7702, with HeLa and in the series on HepG2 were 52.9 ± 0.85 µM, 63.09 ± 0.49 µM and 49.32 ± 0.38 µM, respectively.

As to `COc1cc([C@@H]2c3cc4c(cc3[C@@H](Sc3nnnn3-c3ccccc3)[C@H]3COC(=O)[C@H]23)OCO4)cc(OC)c1O` [Compound 24, 4β-S-(1-phenyltetrazol-5)-4′-demethylepipodophyllotoxin], the results for the half-maximal inhibitory concentration (IC50) with HL-7702, in the series with HeLa and in the series with HepG2 were 71 ± 3.67 µM, 9.73 ± 0.11 µM and 59.69 ± 0.31 µM, respectively.

As for “4β-S-(3-phenyl-1,3,4-thiadiazol-2(3H)thione potassium salt-5)-4′-demethylepipodophyllotoxin [Compound 26]”, the IC50 in the series with HeLa worked out at 48.49 ± 0.38 µM; with HepG2, 5.7 ± 0.33 µM.

As for `COc1cc([C@@H]2c3cc4c(cc3[C@@H](Sc3ccc5ccccc5c3)[C@H]3COC(=O)[C@H]23)OCO4)cc(OC)c1O` [Compound 20, 4β-S-(naphthalen-2)-4′-demethylepipodophyllotoxin], the IC50 came to 76.8 ± 2.11 µM with HL-7702, 5.54 ± 0.3 µM with HeLa and 6.02 ± 0.25 µM in the series with HepG2.
